According to US6682925B1, “Streptomyces strain with insecticidal activity and method of using as an insecticide” (priority 2000, dated 2004):

Key:
Format in all cases: cell-based
Design in all cases: key: 5: five indicated growth equal to the water control; 1: a rating of one indicated the complete absence of growth; Index values two (2) through four (4) represent intermediate levels of sporulation and growth; 3: Index values two (2) through four (4) represent intermediate levels of sporulation and growth; Index values two (2) through four (4) represent intermediate levels of sporulation and growth; zero (0) indicates a failed or unnecessary test
Conditions in all cases: chemical control, all independent replicated tests
Alternaria brassisicola = assay: agar overlay plant pathogen growth assay, ABRA
Protocol: (§1) The novel Streptomyces galbus strain was grown for testing against plant pathogens in the following manner. The isolated microbe was initially fermented in three distinct actinomycete cultivation media. Media 38 was composed of 2 g/L tomato paste, 2 g/L oat flour, and 1.0 g/L sea salts. Media 31 was composed of 45 g/L oat flour, 2 g/L yeast extract, 6 g/L KH2PO4, and 4.8 g/L Na2HPO4, pH 7. Media 6 was composed of 20 g/L soluble starch, 10 g/L dextrose, 5 g/L yeast extract, 5 g/L N-Z amineA, and 1 g/L CaCO3.
(§2) The microbe was picked from tomato-oat flour agar (2 g/L tomato paste, 2 g/L oat flour, and 20 g/L agar) and introduced to 50 ml conical tubes containing 12 ml of sterile fermentation media capped with a foam plug. The inoculated tubes were incubated at 27±3° C., in an orbital shaker for six days. […]
(§3) The following pathogen/chemical pairs were tested: Alternaria brassisicola (ABRA Benomyl), Botrytris cinerea (BOTC/Benomyl), Monilinuafructicola (MONF/Benomyl), Phytophthora capsici (PCAP/Metalaxyl), Pseudomonas syringae (PSTO/Gentamycin), and Colletotrichum coccoides (COLC/Chlorothalonil). […] The chemical controls scored index ratings of one (1) in all of the independent replicated tests; and media blanks had ratings of five (5).

Monilinuafructicola = assay: agar overlay plant pathogen growth assay, MONF
Protocol: as §1, §2, §3

Botrytris cinerea = assay: agar overlay plant pathogen growth assay, BOTC
Protocol: as §1, §2, §3

Colletotrichum coccoides = assay: agar overlay plant pathogen growth assay, COLC
Protocol: as §1, §2, §3

Phytophthora capsici = assay: agar overlay plant pathogen growth assay, PCAP
Protocol: as §1, §2, §3

Pseudomonas syringae = assay: agar overlay plant pathogen growth assay, PSTO
Protocol: as §1, §2, §3

## CCCCNC(=O)n1c(NC(=O)OC)nc2ccccc21 [Benomyl]
Alternaria brassisicola
  ABRA pathogen growth index rating: 1
Monilinuafructicola
  MONF pathogen growth index rating: 1
Botrytris cinerea
  BOTC pathogen growth index rating: 1

## N#Cc1c(Cl)c(Cl)c(Cl)c(C#N)c1Cl [Chlorothalonil]
Colletotrichum coccoides
  COLC pathogen growth index rating: 1

## COCC(=O)N(c1c(C)cccc1C)C(C)C(=O)OC (stereo not drawn) [Metalaxyl]
Phytophthora capsici
  PCAP pathogen growth index rating: 1

## Gentamycin
Pseudomonas syringae
  PSTO pathogen growth index rating: 1
